According to the supplement of paper PMC10307832:

These cell lines were tested with CCCS(=O)(=O)Nc1ccc(F)c(C(=O)c2c[nH]c3ncc(-c4ccc(Cl)cc4)cc23)c1F [Vemurafenib] + COc1cccc2cc(-c3nc([C@H]4CC[C@H](C(=O)O)CC4)n4ncnc(N)c34)[nH]c12 [OSI-027] (partner 0.5 µM) (assay: relative viability (nuclei count vs DMSO), 5 days (fraction); higher = more cells survive). Settings: first compound 0.03162 µM.
Method in brief: (§1)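 Each reported value is a median over duplicate plates. It expresses relative viability: treated-well nuclei count divided by vehicle-well nuclei count. Lung cancer cell lines in 1536-well plates were dosed by pin tool a day after seeding, alone with one drug or with a fixed anchor-drug dose plus five library-drug doses (not always all listed) in √10 steps, and nuclei were counted after 5 days.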

| Cell Line | relative viability |
| --- | --- |
| LCLC-97TM1 | 0.49 |
| NCI-H23 | 0.566 |
| HCC-827 | 0.754 |
| NCI-H2347 | 0.436 |
| LXF-289 | 0.758 |
| NCI-H1666 | 0.845 |
| RERF-LC-KJ | 0.651 |
| NCI-H650 | 0.459 |
| NCI-H322M | 0.461 |
| NCI-H596 | 0.686 |
| 201T | 0.757 |
| NCI-H441 | 0.57 |
| HCC-78 | 0.366 |

Same assay, conditions: first compound 0.1 µM

| Cell Line | relative viability |
| --- | --- |
| LCLC-97TM1 | 0.612 |
| NCI-H23 | 0.543 |
| NCI-H2347 | 0.37 |
| LXF-289 | 0.668 |
| NCI-H1666 | 0.802 |
| RERF-LC-KJ | 0.454 |
| NCI-H650 | 0.473 |
| NCI-H596 | 0.723 |
| 201T | 0.78 |
| NCI-H441 | 0.476 |
| HCC-78 | 0.322 |

Same assay, conditions: first compound 0.3162 µM

| Cell Line | relative viability |
| --- | --- |
| LCLC-97TM1 | 0.713 |
| NCI-H23 | 0.547 |
| HCC-827 | 0.766 |
| NCI-H2347 | 0.577 |
| LXF-289 | 0.622 |
| NCI-H1666 | 0.98 |
| RERF-LC-KJ | 0.533 |
| NCI-H596 | 0.577 |
| 201T | 0.776 |
| NCI-H441 | 0.584 |
| HCC-78 | 0.649 |

Same assay, conditions: first compound 1 µM

| Cell Line | relative viability |
| --- | --- |
| LCLC-97TM1 | 0.43 |
| NCI-H23 | 0.349 |
| HCC-827 | 0.704 |
| NCI-H2347 | 0.367 |
| LXF-289 | 0.772 |
| NCI-H1666 | 0.929 |
| RERF-LC-KJ | 0.632 |
| NCI-H650 | 0.421 |
| NCI-H322M | 0.475 |
| NCI-H596 | 0.492 |
| 201T | 0.497 |
| NCI-H441 | 0.418 |
| HCC-78 | 0.398 |

These cell lines were tested with CCCS(=O)(=O)Nc1ccc(F)c(C(=O)c2c[nH]c3ncc(-c4ccc(Cl)cc4)cc23)c1F [Vemurafenib] + Cc1cc(Nc2cc(N3CCN(C)CC3)nc(Sc3ccc(NC(=O)C4CC4)cc3)n2)n[nH]1 [Tozasertib] (partner 0.1 µM) in the same assay as above. Settings: first compound 0.03162 µM.
Method in brief: as §1

| Cell Line | relative viability |
| --- | --- |
| LCLC-97TM1 | 0.206 |
| NCI-H23 | 0.309 |
| HCC-827 | 0.397 |
| NCI-H2347 | 0.452 |
| LXF-289 | 0.195 |
| NCI-H1666 | 0.575 |
| RERF-LC-KJ | 0.486 |
| NCI-H650 | 0.696 |
| NCI-H322M | 0.426 |
| NCI-H596 | 0.886 |
| 201T | 0.95 |
| NCI-H441 | 0.708 |
| HCC-78 | 0.405 |

Same assay, conditions: first compound 0.1 µM

| Cell Line | relative viability |
| --- | --- |
| LCLC-97TM1 | 0.268 |
| NCI-H23 | 0.352 |
| NCI-H2347 | 0.53 |
| LXF-289 | 0.172 |
| NCI-H1666 | 0.549 |
| RERF-LC-KJ | 0.487 |
| NCI-H650 | 0.703 |
| NCI-H596 | 0.767 |
| 201T | 0.915 |
| NCI-H441 | 0.561 |
| HCC-78 | 0.316 |

Same assay, conditions: first compound 0.3162 µM

| Cell Line | relative viability |
| --- | --- |
| LCLC-97TM1 | 0.269 |
| NCI-H23 | 0.345 |
| HCC-827 | 0.42 |
| NCI-H2347 | 0.507 |
| LXF-289 | 0.149 |
| NCI-H1666 | 0.801 |
| RERF-LC-KJ | 0.415 |
| NCI-H596 | 0.813 |
| 201T | 0.925 |
| NCI-H441 | 0.476 |
| HCC-78 | 0.507 |

Same assay, conditions: first compound 1 µM

| Cell Line | relative viability |
| --- | --- |
| LCLC-97TM1 | 0.166 |
| NCI-H23 | 0.278 |
| HCC-827 | 0.41 |
| NCI-H2347 | 0.482 |
| LXF-289 | 0.169 |
| NCI-H1666 | 0.579 |
| RERF-LC-KJ | 0.397 |
| NCI-H650 | 0.614 |
| NCI-H322M | 0.446 |
| NCI-H596 | 0.904 |
| 201T | 0.975 |
| NCI-H441 | 0.591 |
| HCC-78 | 0.468 |

What follows are cell lines tested with CCCS(=O)(=O)Nc1ccc(F)c(C(=O)c2c[nH]c3ncc(-c4ccc(Cl)cc4)cc23)c1F [Vemurafenib] + NC(=O)Nc1cc(-c2cccc(F)c2)sc1C(=O)N[C@H]1CCCNC1 [AZD7762] (partner 0.2 µM) in the same assay as above. Settings: first compound 0.03162 µM.
Method in brief: as §1

| Cell Line | relative viability |
| --- | --- |
| LCLC-97TM1 | 0.286 |
| NCI-H23 | 0.203 |
| HCC-827 | 0.234 |
| NCI-H2347 | 0.744 |
| LXF-289 | 1.04 |
| NCI-H1666 | 0.782 |
| RERF-LC-KJ | 0.874 |
| NCI-H650 | 0.854 |
| NCI-H322M | 0.559 |
| NCI-H596 | 1.11 |
| 201T | 0.652 |
| NCI-H441 | 1.09 |
| HCC-78 | 0.513 |

Same assay, conditions: first compound 0.1 µM

| Cell Line | relative viability |
| --- | --- |
| LCLC-97TM1 | 0.298 |
| NCI-H23 | 0.178 |
| NCI-H2347 | 0.744 |
| LXF-289 | 1.12 |
| NCI-H1666 | 0.73 |
| RERF-LC-KJ | 1.01 |
| NCI-H650 | 1.03 |
| NCI-H596 | 1.05 |
| 201T | 0.515 |
| NCI-H441 | 1.1 |
| HCC-78 | 0.493 |

Same assay, conditions: first compound 0.3162 µM

| Cell Line | relative viability |
| --- | --- |
| LCLC-97TM1 | 0.326 |
| NCI-H23 | 0.154 |
| HCC-827 | 0.198 |
| NCI-H2347 | 0.664 |
| LXF-289 | 1.04 |
| NCI-H1666 | 0.729 |
| RERF-LC-KJ | 0.663 |
| NCI-H650 | 0.419 |
| NCI-H322M | 0.543 |
| NCI-H596 | 0.801 |
| 201T | 0.604 |
| NCI-H441 | 1.16 |
| HCC-78 | 0.65 |

Same assay, conditions: first compound 1 µM

| Cell Line | relative viability |
| --- | --- |
| LCLC-97TM1 | 0.342 |
| NCI-H23 | 0.21 |
| HCC-827 | 0.265 |
| NCI-H2347 | 0.884 |
| LXF-289 | 1.25 |
| NCI-H1666 | 0.829 |
| RERF-LC-KJ | 1.08 |
| NCI-H650 | 0.906 |
| NCI-H322M | 0.51 |
| NCI-H596 | 1.02 |
| 201T | 0.617 |
| NCI-H441 | 1.03 |
| HCC-78 | 0.777 |

Each cell line was assayed with COc1cccc2cc(-c3nc([C@H]4CC[C@H](C(=O)O)CC4)n4ncnc(N)c34)[nH]c12 [OSI-027] + C[C@@H](Oc1cc(-c2cnn(C3CCNCC3)c2)cnc1N)c1c(Cl)ccc(F)c1Cl [Crizotinib] (partner 1 µM) in the same assay as above. Settings: first compound 0.01 µM.
Method in brief: as §1

| Cell Line | relative viability |
| --- | --- |
| LCLC-97TM1 | 0.246 |
| NCI-H23 | 0.482 |
| HCC-827 | 0.924 |
| NCI-H2347 | 0.668 |
| LXF-289 | 0.859 |
| NCI-H1666 | 1 |
| RERF-LC-KJ | 0.884 |
| NCI-H650 | 0.733 |
| NCI-H322M | 0.86 |
| NCI-H596 | 0.946 |
| 201T | 1.05 |
| NCI-H441 | 0.679 |
| HCC-78 | 0.289 |

Same assay, conditions: first compound 0.03162 µM

| Cell Line | relative viability |
| --- | --- |
| LCLC-97TM1 | 0.407 |
| NCI-H23 | 0.416 |
| HCC-827 | 0.969 |
| NCI-H2347 | 0.609 |
| LXF-289 | 0.827 |
| NCI-H1666 | 1.09 |
| RERF-LC-KJ | 0.938 |
| NCI-H650 | 0.583 |
| NCI-H322M | 0.929 |
| NCI-H596 | 1.07 |
| 201T | 1.11 |
| NCI-H441 | 0.613 |
| HCC-78 | 0.322 |

Same assay, conditions: first compound 0.1 µM

| Cell Line | relative viability |
| --- | --- |
| LCLC-97TM1 | 0.322 |
| NCI-H23 | 0.535 |
| HCC-827 | 0.915 |
| NCI-H2347 | 0.673 |
| LXF-289 | 0.892 |
| NCI-H1666 | 0.754 |
| RERF-LC-KJ | 0.861 |
| NCI-H650 | 0.582 |
| NCI-H322M | 0.951 |
| NCI-H596 | 1.05 |
| 201T | 1.08 |
| NCI-H441 | 0.633 |
| HCC-78 | 0.33 |

Same assay, conditions: first compound 0.3162 µM

| Cell Line | relative viability |
| --- | --- |
| LCLC-97TM1 | 0.267 |
| NCI-H23 | 0.525 |
| HCC-827 | 1.01 |
| NCI-H2347 | 0.388 |
| LXF-289 | 0.909 |
| NCI-H1666 | 0.76 |
| RERF-LC-KJ | 0.805 |
| NCI-H650 | 0.469 |
| NCI-H322M | 0.947 |
| NCI-H596 | 0.838 |
| 201T | 1.03 |
| NCI-H441 | 0.604 |
| HCC-78 | 0.274 |

Same assay, conditions: first compound 1 µM

| Cell Line | relative viability |
| --- | --- |
| LCLC-97TM1 | 0.105 |
| NCI-H23 | 0.293 |
| HCC-827 | 0.649 |
| NCI-H2347 | 0.405 |
| LXF-289 | 0.759 |
| NCI-H1666 | 0.524 |
| RERF-LC-KJ | 0.484 |
| NCI-H650 | 0.336 |
| NCI-H322M | 0.775 |
| NCI-H596 | 0.734 |
| 201T | 0.847 |
| NCI-H441 | 0.338 |
| HCC-78 | 0.185 |
